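Grown in 96-well plates, cells were treated for 48 hours with each compound at five concentrations. Insufficient inhibition: endpoint recorded as highest concentration tested. TGI denotes the concentration required for complete inhibition of growth.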
How the values were obtained:
Assay in all cases: inhibition of tumour cell growth, NCI panel, 48 h
ACHN renal = tested on: ACHN renal
KM12 colon = tested on: KM12 colon
NCI-H460 lung = tested on: NCI-H460 lung
MDA-N = tested on: MDA-N
NCI-H522 lung = tested on: NCI-H522 lung
MDA-MB-435 = tested on: MDA-MB-435
NCI-H226 lung = tested on: NCI-H226 lung
SF-539 CNS = tested on: SF-539 CNS
DU-145 prostate = tested on: DU-145 prostate
SK-MEL-2 melanoma = tested on: SK-MEL-2 melanoma
HOP-92 NSCLC = tested on: HOP-92 NSCLC
SF-295 CNS = tested on: SF-295 CNS
CAKI-1 renal = tested on: CAKI-1 renal
K-562 leukemia = tested on: K-562 leukemia
TK-10 renal = tested on: TK-10 renal
SNB-75 CNS = tested on: SNB-75 CNS
SF-268 CNS = tested on: SF-268 CNS
UACC-62 melanoma = tested on: UACC-62 melanoma
RXF 393 renal = tested on: RXF 393 renal
OVCAR-4 ovarian = tested on: OVCAR-4 ovarian
OVCAR-8 ovarian = tested on: OVCAR-8 ovarian
BT-549 breast = tested on: BT-549 breast
MDA-MB-231 breast = tested on: MDA-MB-231 breast
A549 NSCLC = tested on: A549 NSCLC
M14 melanoma = tested on: M14 melanoma
PC-3 prostate = tested on: PC-3 prostate
HCC-2998 colon = tested on: HCC-2998 colon
UO-31 renal = tested on: UO-31 renal
NCI-H23 lung = tested on: NCI-H23 lung
HOP-62 NSCLC = tested on: HOP-62 NSCLC
SNB-19 CNS = tested on: SNB-19 CNS
HCT-116 colon = tested on: HCT-116 colon
786-0 renal = tested on: 786-0 renal
SN12C renal = tested on: SN12C renal
IGROV1 ovarian = tested on: IGROV1 ovarian
CCRF-CEM leukemia = tested on: CCRF-CEM leukemia
LOX IMVI melanoma = tested on: LOX IMVI melanoma
SK-MEL-28 melanoma = tested on: SK-MEL-28 melanoma
COLO 205 colon = tested on: COLO 205 colon
EKVX NSCLC = tested on: EKVX NSCLC
T-47D breast = tested on: T-47D breast
HCT-15 colon = tested on: HCT-15 colon
U251 CNS = tested on: U251 CNS
HL-60(TB) leukemia = tested on: HL-60(TB) leukemia
SW-620 colon = tested on: SW-620 colon
SK-MEL-5 melanoma = tested on: SK-MEL-5 melanoma
OVCAR-5 ovarian = tested on: OVCAR-5 ovarian
UACC-257 melanoma = tested on: UACC-257 melanoma
SK-OV-3 ovarian = tested on: SK-OV-3 ovarian
MCF7 breast = tested on: MCF7 breast
A498 renal = tested on: A498 renal
SR leukemia = tested on: SR leukemia
HT29 colon = tested on: HT29 colon
OVCAR-3 ovarian = tested on: OVCAR-3 ovarian
RPMI-8226 leukemia = tested on: RPMI-8226 leukemia
HS 578T breast = tested on: HS 578T breast
MOLT-4 leukemia = tested on: MOLT-4 leukemia
MALME-3M melanoma = tested on: MALME-3M melanoma
NCI/ADR-RES ovarian = tested on: NCI/ADR-RES ovarian

Measured: TGI

CC1OC(OC2C(OC3C[C@@]4(C)C(C[C@H](O)[C@H]5[C@H](C6(C)CCC(C(C)(C)O)O6)CCC54C)[C@]4(C)CC[C@@H](O)C(C)(C)C34)OC(CO)C(O)C2O)C(O)C(O)C1O (stereo partly drawn) (tested in a mixture with another compound)
not listed: MALME-3M melanoma | NCI/ADR-RES ovarian
> 100 µM: all other assays above

CC(/C=N/NC1=NCCCCN1)=N\NC1=NCCCCN1
38.7 µM: M14 melanoma
84 µM: MALME-3M melanoma
57 µM: COLO 205 colon
not listed: DU-145 prostate | SK-MEL-2 melanoma | HL-60(TB) leukemia | A498 renal
> 100 µM: all other assays above

CN(C)CCCNC(=O)c1cc(NC(=O)c2cc(NC(=O)c3cc(NC(=O)CCCn4ccc(CO)c4CO)cn3C)cn2C)cn1C
44.7 µM: OVCAR-3 ovarian
6.24 µM: RXF 393 renal
75.4 µM: A549 NSCLC
42.1 µM: SK-MEL-28 melanoma
47.7 µM: MDA-MB-435
37.4 µM: MALME-3M melanoma
7.51 µM: BT-549 breast
98.2 µM: HS 578T breast
72.4 µM: TK-10 renal
53.1 µM: COLO 205 colon
8.38 µM: NCI-H522 lung
77 µM: SK-MEL-2 melanoma
33.6 µM: SF-539 CNS
37.9 µM: UACC-62 melanoma
13.9 µM: NCI-H226 lung
12.7 µM: SK-MEL-5 melanoma
44.4 µM: SNB-75 CNS
not listed: SF-295 CNS | OVCAR-8 ovarian | M14 melanoma | HOP-62 NSCLC | UACC-257 melanoma | A498 renal | HT29 colon | RPMI-8226 leukemia
> 100 µM: all other assays above

Cc1nc2ccccc2c(=O)n1NC(=O)Cc1ccccc1
not listed: SK-MEL-2 melanoma | CAKI-1 renal | HCT-15 colon | NCI/ADR-RES ovarian
> 100 µM: all other assays above

O=C1C=CC2(O[C@@H](Cc3ccccc3)[C@H](Cc3ccccc3)O2)C(SC(=O)c2ccccc2)C1 (stereo partly drawn)
11.3 µM: T-47D breast
4.82 µM: HL-60(TB) leukemia
4.57 µM: HS 578T breast
2.24 µM: OVCAR-3 ovarian
0.549 µM: OVCAR-8 ovarian
4.67 µM: NCI-H23 lung
0.399 µM: 786-0 renal
3.16 µM: SK-MEL-5 melanoma
3.05 µM: HOP-92 NSCLC
11.8 µM: DU-145 prostate
8.04 µM: SK-OV-3 ovarian
16.2 µM: A498 renal
1.71 µM: HCT-15 colon
5.22 µM: MDA-N
4.28 µM: SF-295 CNS
2.56 µM: U251 CNS
3.41 µM: SNB-75 CNS
3.71 µM: CAKI-1 renal
1.11 µM: BT-549 breast
3.04 µM: SF-539 CNS
2.55 µM: UACC-257 melanoma
2.44 µM: SF-268 CNS
4.09 µM: TK-10 renal
3.08 µM: HT29 colon
3.69 µM: PC-3 prostate
0.858 µM: SW-620 colon
9.56 µM: NCI-H460 lung
6.82 µM: KM12 colon
0.325 µM: RXF 393 renal
1.74 µM: OVCAR-5 ovarian
6.39 µM: MDA-MB-231 breast
2.12 µM: MCF7 breast
3.44 µM: SK-MEL-28 melanoma
2.43 µM: ACHN renal
3.14 µM: COLO 205 colon
2.68 µM: HOP-62 NSCLC
5.06 µM: MALME-3M melanoma
2.99 µM: M14 melanoma
1.15 µM: CCRF-CEM leukemia
89.4 µM: K-562 leukemia
0.807 µM: SR leukemia
4.4 µM: OVCAR-4 ovarian
1.46 µM: LOX IMVI melanoma
16.1 µM: A549 NSCLC
3.2 µM: NCI-H226 lung
3.46 µM: SK-MEL-2 melanoma
2.54 µM: IGROV1 ovarian
5.46 µM: MDA-MB-435
5.04 µM: UACC-62 melanoma
7.28 µM: SNB-19 CNS
0.375 µM: HCT-116 colon
0.651 µM: MOLT-4 leukemia
1.24 µM: RPMI-8226 leukemia
4.06 µM: NCI/ADR-RES ovarian
3.97 µM: SN12C renal
1.87 µM: UO-31 renal

O=C(NCCO)c1c(O)c2ccccc2[nH]c1=O
not listed: SK-MEL-2 melanoma | UACC-62 melanoma | M14 melanoma | T-47D breast | SK-OV-3 ovarian
> 100 µM: all other assays above

Cc1ccc([N+](=O)[O-])cc1S(=O)(=O)Nc1ccc(C2=NN(c3ccc([N+](=O)[O-])cc3[N+](=O)[O-])C(c3ccccc3O)C2)cc1 (stereo not drawn)
54 µM: SN12C renal
90.6 µM: EKVX NSCLC
61.1 µM: SK-MEL-5 melanoma
59.4 µM: SK-MEL-2 melanoma
61.3 µM: OVCAR-3 ovarian
86.6 µM: MDA-MB-231 breast
59.7 µM: NCI-H23 lung
82.7 µM: UACC-257 melanoma
83.1 µM: NCI-H522 lung
not listed: NCI-H460 lung | UACC-62 melanoma | HCC-2998 colon | A498 renal
> 100 µM: all other assays above

— PubChem BioAssay (NCI)
